Measurements reported in patent US20240216344A1, “THIAZOLIDINEDIONE ANALOGS FOR THE TREATMENT OF NAFLD AND METABOLIC DISEASES” (Cirius Therapeutics, Inc., priority 2019, published 2024).

Columns and labels:
MPC = molecular target: T1, MPC (Homo sapiens, UniProt O95563+Q9Y5U8); experiment: Relative binding affinity for the MPC (FIG. 8)
T1 sequence (Q9Y5U8 1-109): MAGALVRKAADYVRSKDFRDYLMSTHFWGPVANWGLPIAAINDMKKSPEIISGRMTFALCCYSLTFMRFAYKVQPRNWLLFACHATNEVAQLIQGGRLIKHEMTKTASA
T1 sequence (O95563 1-127): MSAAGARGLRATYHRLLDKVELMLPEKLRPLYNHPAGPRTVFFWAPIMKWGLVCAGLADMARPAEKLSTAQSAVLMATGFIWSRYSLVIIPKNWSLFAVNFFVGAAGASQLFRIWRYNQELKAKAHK

[1] = tested on: diet-induced obese (60% HF diet) LS-MPC2−/− and WT (fl/fl) mice; experiment: Single gavage dose in diet-induced obese WT and LS-MPC2−/− mice: GTT, plasma insulin, plasma ALT, liver qPCR; assay type: in vivo; settings: for glucose tolerance (GTT): 20 h after a single dose of 30 mg/kg
Method: 8 week old WT and LS-MPC2−/− mice were fed a diet of 60% fat (Research Diets D12492) for 20 weeks to induce obesity and insulin resistance. Intraperitoneal glucose tolerance tests (GTT) were performed after a 4 h fast by injection of 1 g/kg D-glucose in saline i.p. to assess glucose tolerance. 3 days after the initial GTT, mice were randomized to receive a single gavage of either vehicle (1% CMC, 0.01% Tween-80) or 30 mg/kg MSDC-0602K. Plasma insulin was measured by Singulex assay and plasma ALT levels were measured by commercially-available kits (Teco Diagnostics). qPCR was performed by isolation of total RNA with RNA-Bee and reverse transcription with a high-capacity cDNA synthesis kit (Invitrogen). qPCR was performed on an Applied Biosystems real-time thermocycler.
WT (fl/fl) and LS-MPC2−/− mice were put on 60% HF diet and became equally obese. […] (FIGS. 1A-1C).

[2] = tested on: mouse model of NASH (HTF-C diet); experiment: NASH (HTF-C) diet mice: serum small RNA sequencing; assay type: in vivo; settings: HTF-C diet containing 331 ppm
Method: To begin evaluating the exosome cargo of MSDC-0602K-treated mice, WT mice were fed with either a low fat (LF) control diet (Research Diets D09100304) or high trans-fat, fructose, cholesterol (HTF-C) diet composed of 40% trans-fat, 20% fructose, 2% cholesterol (Research Diets D09100301).
Total RNA was isolated from 400 μL of serum and small RNA sequencing was performed by adapter ligation, cDNA synthesis and size selection of 145-160 base pairs. Sequencing was then performed on an Illumina HiSeq3000.
Heat map miRNAs (˜230 miRNAs) were selected by filtering data for 2-fold or greater change and FDR<0.1 comparing LF to HTF-C diet (not shown). […] Dysregulation of a number of these miRNAs has been previously identified in liver or other fibrotic diseases.

[3] = Phase 1 clinical trials in healthy volunteers (PK, safety); assay type: in vivo, human; settings: 126 healthy volunteers

COc1cccc(C(=O)COc2ccc(CC3SC(=O)NC3=O)cc2)c1 (stereo not drawn) [MSDC-0602]
binding to the MPC (MPC): maintain, and in some cases improve
glucose tolerance (GTT) ([1]; LS-MPC2−/− mice): no improvement in glucose tolerance
beneficial effects on markers of liver injury ([1]; LS-MPC2−/− mice, acute treatment): refractory
glucose tolerance (GTT) ([1]; WT mice): improved glucose tolerance
gene expression for hepatic stellate cell activation and fibrotic scar formation ([1]; WT mice, single dose): decreased gene expression
plasma ALT concentrations ([1]; WT mice, single dose): decreased plasma ALT concentrations
plasma insulin values ([1]; both WT and LS-MPC2−/− mice, single dose 30 mg/kg): decreased
serum miRNAs altered in a mouse model of NASH [2]: largely corrected
deaths, serious or severe adverse events, discontinuations due to adverse events [3]: abdominal bloating. No deaths, serious adverse events, severe adverse
